Calls of active or inactive are those of the source.
How the values were obtained:
Exodeoxyribonuclease V = molecular target: T1, Exodeoxyribonuclease V (Escherichia coli (strain K12), UniProt P04993+P07648+P08394); assay: RecBCD inhibition via phage-restricted bacterial growth – absorbance, V66 E. coli, mutant T4 phage, counter-screen for AddAB inhibitor project, dose response (AID 492957); format: functional, cell-based, Escherichia coli str. K-12 substr. MG1655
T1 sequence (P04993 whole entry): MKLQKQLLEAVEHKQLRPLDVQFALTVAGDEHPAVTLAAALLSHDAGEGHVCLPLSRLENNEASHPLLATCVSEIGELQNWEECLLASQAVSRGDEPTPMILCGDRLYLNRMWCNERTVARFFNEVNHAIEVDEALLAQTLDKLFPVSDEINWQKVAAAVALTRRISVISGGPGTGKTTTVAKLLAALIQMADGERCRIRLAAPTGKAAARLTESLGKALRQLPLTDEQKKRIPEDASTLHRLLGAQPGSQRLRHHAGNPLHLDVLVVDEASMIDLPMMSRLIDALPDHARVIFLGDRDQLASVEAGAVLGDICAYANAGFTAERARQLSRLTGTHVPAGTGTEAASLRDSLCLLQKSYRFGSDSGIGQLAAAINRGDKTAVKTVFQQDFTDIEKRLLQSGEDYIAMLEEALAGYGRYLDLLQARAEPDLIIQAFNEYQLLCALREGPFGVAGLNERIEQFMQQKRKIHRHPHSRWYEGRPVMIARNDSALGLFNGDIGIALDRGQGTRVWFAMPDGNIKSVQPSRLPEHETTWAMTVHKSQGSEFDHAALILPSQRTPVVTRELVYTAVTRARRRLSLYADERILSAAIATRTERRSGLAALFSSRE
T1 sequence (P07648 whole entry): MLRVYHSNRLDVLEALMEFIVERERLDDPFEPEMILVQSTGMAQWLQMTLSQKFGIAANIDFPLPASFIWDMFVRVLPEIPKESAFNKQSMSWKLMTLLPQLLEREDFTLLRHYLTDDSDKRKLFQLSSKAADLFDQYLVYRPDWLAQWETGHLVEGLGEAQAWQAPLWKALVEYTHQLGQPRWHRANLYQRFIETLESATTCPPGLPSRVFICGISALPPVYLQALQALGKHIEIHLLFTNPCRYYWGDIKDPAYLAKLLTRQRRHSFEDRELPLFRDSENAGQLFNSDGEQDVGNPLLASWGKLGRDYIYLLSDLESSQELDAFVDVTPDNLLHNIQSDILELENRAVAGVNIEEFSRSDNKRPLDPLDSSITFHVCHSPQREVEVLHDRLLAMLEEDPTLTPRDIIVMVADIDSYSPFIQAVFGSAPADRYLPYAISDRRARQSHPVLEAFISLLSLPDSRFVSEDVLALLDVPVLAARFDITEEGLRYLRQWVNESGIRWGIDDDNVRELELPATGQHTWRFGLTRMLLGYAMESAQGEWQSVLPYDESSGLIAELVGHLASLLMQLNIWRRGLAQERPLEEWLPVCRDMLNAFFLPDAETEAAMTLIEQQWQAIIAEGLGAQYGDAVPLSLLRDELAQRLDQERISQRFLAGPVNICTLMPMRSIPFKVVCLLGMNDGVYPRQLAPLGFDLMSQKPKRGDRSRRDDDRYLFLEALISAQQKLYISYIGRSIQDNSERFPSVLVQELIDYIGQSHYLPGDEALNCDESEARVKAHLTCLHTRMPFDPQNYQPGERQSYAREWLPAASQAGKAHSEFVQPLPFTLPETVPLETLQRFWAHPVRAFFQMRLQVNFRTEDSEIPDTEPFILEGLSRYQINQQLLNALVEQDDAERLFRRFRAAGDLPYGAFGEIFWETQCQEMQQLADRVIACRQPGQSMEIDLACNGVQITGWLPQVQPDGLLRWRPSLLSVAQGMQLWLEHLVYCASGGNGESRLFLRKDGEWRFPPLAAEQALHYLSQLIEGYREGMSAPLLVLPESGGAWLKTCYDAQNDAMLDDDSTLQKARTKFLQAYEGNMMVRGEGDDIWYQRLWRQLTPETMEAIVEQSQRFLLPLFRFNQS
T1 sequence (P08394 whole entry): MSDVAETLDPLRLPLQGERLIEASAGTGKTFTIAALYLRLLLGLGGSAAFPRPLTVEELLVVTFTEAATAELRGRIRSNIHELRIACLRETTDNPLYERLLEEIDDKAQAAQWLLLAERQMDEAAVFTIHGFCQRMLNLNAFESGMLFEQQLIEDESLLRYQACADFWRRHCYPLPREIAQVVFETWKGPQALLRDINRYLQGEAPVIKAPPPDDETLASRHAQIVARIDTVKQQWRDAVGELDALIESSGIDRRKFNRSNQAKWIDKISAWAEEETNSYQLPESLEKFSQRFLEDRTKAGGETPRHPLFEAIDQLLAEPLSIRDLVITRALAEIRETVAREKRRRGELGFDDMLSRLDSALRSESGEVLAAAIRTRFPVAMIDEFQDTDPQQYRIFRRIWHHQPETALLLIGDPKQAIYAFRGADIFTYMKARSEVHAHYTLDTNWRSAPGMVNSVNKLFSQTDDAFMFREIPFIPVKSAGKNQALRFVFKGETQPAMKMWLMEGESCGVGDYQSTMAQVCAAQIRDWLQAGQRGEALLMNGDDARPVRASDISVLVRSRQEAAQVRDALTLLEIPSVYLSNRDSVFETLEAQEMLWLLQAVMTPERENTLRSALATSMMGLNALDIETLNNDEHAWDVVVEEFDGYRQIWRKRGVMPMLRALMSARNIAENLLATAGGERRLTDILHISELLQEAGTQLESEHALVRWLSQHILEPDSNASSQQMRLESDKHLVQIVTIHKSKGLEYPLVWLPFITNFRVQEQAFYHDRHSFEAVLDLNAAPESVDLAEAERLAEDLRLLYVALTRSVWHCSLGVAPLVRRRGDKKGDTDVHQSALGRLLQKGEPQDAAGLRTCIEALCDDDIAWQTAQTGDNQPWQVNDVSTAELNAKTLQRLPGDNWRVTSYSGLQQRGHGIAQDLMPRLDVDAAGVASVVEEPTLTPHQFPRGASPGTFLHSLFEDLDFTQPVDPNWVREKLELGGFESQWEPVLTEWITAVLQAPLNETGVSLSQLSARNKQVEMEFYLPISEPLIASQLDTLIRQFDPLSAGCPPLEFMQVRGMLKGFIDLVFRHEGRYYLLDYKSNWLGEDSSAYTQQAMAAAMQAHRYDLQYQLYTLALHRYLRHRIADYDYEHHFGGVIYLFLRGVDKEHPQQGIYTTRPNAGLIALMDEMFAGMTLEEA

[1] = NIH-3T3 fibroblast cytotoxicity, dose response, cytotoxicity control, cell-based, fluorescence, Alamar Blue, secondary assay (AID 2327); format: functional;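 also: NIH-3T3 mouse fibroblasts cultured with fluconazole at 8 µg/mL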
[2] = fluconazole-exposed Candida albicans growth modulators – fluorescence, retest, confirmation (AID 2467); format: functional, cell-based
[3] = blockers of HIV-1 envelope-mediated cell-cell fusion – cherry-pick, dose response (AID 652057); format: functional, cell-based
[4] = viability loss in CEM21 cells – cell-based, CellTiter-Glo luminescence, cherry-picked, cytotoxicity control for viral fusion inhibitor project, dose response (AID 652042); format: functional;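 also: potency for signal decrease meaning cytotoxicity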

## COc1cccc(/C=N/Nc2ccc([N+](=O)[O-])cn2)c1O
Exodeoxyribonuclease V
  IC50: > 118 µM (inactive)
[1]
  EC50: 1.61 µM (inconclusive)
[2]
  EC50: 1.51 µM (active)

## CCc1ccc(S(=O)(=O)/N=C2\C=C(Nc3ccc(C(=O)O)cc3)C(=O)c3ccccc32)cc1
[3]
  AC50: 8.79 µM (active)
[4]
  AC50: 6.53 µM (active)

## Oc1c(C(c2ccccc2Cl)N2CCCC2)ccc2cccnc12 (stereo not drawn)
Exodeoxyribonuclease V
  IC50: 102 µM (inactive)
[1]
  EC50: > 160 µM (inactive)
[2]
  EC50: 1.08 µM (active)

Source: ChEMBL document CHEMBL1201862, “PubChem BioAssay data set” (2004)
